Source: US12024716B2, “Compositions and methods of expansion of T cell populations” (THE BOARD OF TRUSTEES OF THE LELAND STANFORD JUNIOR …, priority 2018, dated 2024)
Read-outs that look alike come from different tables or passages of the source.

Legend:
pRPS6 = details: gated on CFSE+CD8+ T cells
From the text: (§1) Mass cytometry data were normalized and debarcoded.

[1] = test system: human naïve CFSE+ CD8+ T cells; details: for CFSE^+ CD8^+ T cells (%)^*: live and non-apoptotic gates not applied
From the text: Peripheral blood mononuclear cells (PBMCs) were isolated from Trima Accel leukocyte reduction system (LRS) chambers (Terumo BCT, Lakewood, CO) of de-identified healthy blood donors (Stanford Blood Center, Palo Alto, CA) using Ficoll-Paque Plus (GE Healthcare, Chicago, IL, USA) density gradient centrifugation according to manufacturer's instructions. For long-term storage, PBMCs were resuspended in FBS with 10% DMSO and stored in liquid nitrogen at density 1-5×10^7 cells/mL. Cryopreserved PBMCs were thawed into cell culture medium (CCM; RPMI 1640 containing 10% FBS, 1× L-glutamine, and 1× penicillin/streptomycin; Thermo Fisher Scientific Waltham, MA, USA) supplemented with 25 U/mL benzonase (SIGMA-ALDRICH®, St. Louis, MO, USA). Cells were then pelleted for 5 minutes at 250×g, resuspended in 10 mL CCM, rested at 37° C., 5% CO2 for 60 minutes, filtered through a 40 μm strainer, and counted. Where indicated, naïve T cells were enriched using Naïve Pan T Cell Isolation Kit (Miltenyi Biotec #130-097-095, Bergisch Gladbach, Germany) according to manufacturer's instructions.
Unless otherwise noted, carboxyfluorescein succinimidyl ester (CFSE) labeling was performed as described by Quah and Parish16, 17. Briefly, 50 μg carboxyfluorescein diacetate succinimidyl ester (CFDA-SE) was reconstituted in 18 μL DMSO (CellTrace CFSE Cell Proliferation Kit, Thermo Fisher Scientific #C34554) to create a 5 mM stock immediately prior to labeling. Cells were resuspended in 1 mL warm CCM and transferred into a new 15 mL Falcon tube lying horizontally. A drop containing 110 μL warm PBS was placed on a side of the tube, and 17.6 μL of 5 mM CFDA-SE was diluted into the drop. The tube was then quickly capped and turned upside right while being vortexed gently, yielding a final concentration of 80 μM CFDA-SE. Cells were incubated for 5 minutes at room temperature, quenched by adding 9 mL warm CCM, and washed twice with 10 mL warm CCM. When only naïve T cells were labeled with CFSE, they were combined with the CFSE-negative PBMC fraction devoid of naïve T cells after labeling to restore original cell proportions. All centrifuging steps for live cells were done for 5 minutes at 250 g, 37° C. CFSE and labeled cells were protected from light throughout the experiment. During protocol optimization, the above labeling protocol for 0.1-10×10^7 cells and CFSE concentrations in range of 0.2 μM to 320 μM was tested. Long-term cell viability and proliferation were assessed. Manufacturer's labeling protocol for CFSE concentrations 0.2 μM to 20 μM, as well as other CFSE suppliers (BIOLEGEND® #422701, San Diego, CA, USA) were also tested.
Samples were processed as previously known in the art. To stain cells for viability, cisplatin (SIGMA-ALDRICH® #P4394) was reconstituted to 100 mM in DMSO and incubated at 37° C. for 3 days to prepare a stock solution, which was then stored in aliquots at −20° C. Cell pellets were resuspended in 1 mL PBS containing 0.5 μM cisplatin, gently vortexed, incubated 5 minutes at room temperature, quenched with 3 mL CCM, pelleted, and resuspended in 1 mL CCM. […] All centrifuging steps for fixed cells were done for 5 minutes at 600×g, 4° C. Cell pellets were optionally stored at −80° C.
as §1

[2] = test system: human naïve CFSE+ CD8+ T cells; assay: Naïve CD8+ T-cell differentiation in REP: skewing between TSCM-like and dysfunctional phenotype (mass cytometry, force-directed graph, DPT); details: for CD45RA^Low CD25^High (%) / CD45RA^High CD25^Low (%): gated on CFSE^+CD8^+T cells; for CD45RA^Low CD25^High (%): path toward dysfunctional phenotype; for CD45RA^High CD25^Low (%): path towards TSCM-like phenotype; for CD45RA High CD25 Low (%) / CD45RA Low CD25 High (%): gated on CFSE+CD8+ T cells
[3] = REP day 3, among CD45RA^High CD25^Low CFSE^+CD8^+T cells
[4] = REP day 3, among CD45RA^Low CD25^High CFSE^+CD8^+T cells
[5] = REP day 4, among CD45RA^High CD25^Low CFSE^+CD8^+T cells
[6] = REP day 4, among CD45RA^Low CD25^High CFSE^+CD8^+T cells
[7] = REP day 5, among CD45RA^High CD25^Low CFSE^+CD8^+T cells
[8] = REP day 5, among CD45RA^Low CD25^High CFSE^+CD8^+T cells
[9] = REP day 7, among CD45RA^High CD25^Low CFSE^+CD8^+T cells
[10] = REP day 7, among CD45RA^Low CD25^High CFSE^+CD8^+T cells
[11] = in CD45RA High CD25 Low subset of CFSE+CD8+ T cells, REP day 3
[12] = in CD45RA High CD25 Low subset of CFSE+CD8+ T cells, REP day 4
[13] = in CD45RA High CD25 Low subset of CFSE+CD8+ T cells, REP day 5
[14] = in CD45RA High CD25 Low subset of CFSE+CD8+ T cells, REP day 7
[15] = in CD45RA Low CD25 High subset of CFSE+CD8+ T cells, REP day 3
[16] = in CD45RA Low CD25 High subset of CFSE+CD8+ T cells, REP day 4
[17] = in CD45RA Low CD25 High subset of CFSE+CD8+ T cells, REP day 5
[18] = in CD45RA Low CD25 High subset of CFSE+CD8+ T cells, REP day 7

CO[C@H]1C[C@@H]2CC[C@@H](C)[C@@](O)(O2)C(=O)C(=O)N2CCCC[C@H]2C(=O)O[C@H]([C@H](C)C[C@@H]2CC[C@@H](O)[C@H](OC)C2)CC(=O)[C@H](C)/C=C(\C)[C@@H](O)[C@@H](OC)C(=O)[C@H](C)C[C@H](C)/C=C/C=C/C=C/1C [Rapamycin, rapamycin]
pRPS6+ (%) (first column, c2) (pRPS6; REP day 3): 99.49%
pRPS6+ (%) (second column, c5) (pRPS6; REP day 3): 0.51%
pRPS6+ (%) (first column, c2) (pRPS6; REP day 4): 99.15%
pRPS6+ (%) (second column, c5) (pRPS6; REP day 4): 0.85%
pRPS6+ (%) (first column, c2) (pRPS6; REP day 5): 99.28%
pRPS6+ (%) (second column, c5) (pRPS6; REP day 5): 0.72%
pRPS6+ (%) (first column, c2) (pRPS6; REP day 7): 99.44%
pRPS6+ (%) (second column, c5) (pRPS6; REP day 7): 0.56%
Apoptotic cells (% cPARP+ cells in CFSE+ CD8+ T cells) ([1]; REP day 3): 0.43%
Apoptotic cells (% cPARP^+ cells in CFSE^+ CD8^+T cells) ([1]; REP day 3): 0.43%
CFSE+ CD8+ T cells (%) ([1]; REP day 3): 2.14%
Dead cells (1% cisplatin+ cells in CFSE+ CD8+ T cells) ([1]; REP day 3): 0.26%
Dead cells (1% cisplatin^+ cells in CFSE^+ CD8^+ T cells) ([1]; REP day 3): 0.26%
Total CFSE+ CD8+ T cells ([1]; REP day 3): 0.14
Total CFSE^+ CD8^+ T cells ([1]; REP day 3): 0.14
Total cells (×10^6) ([1]; REP day 3): 6.48 ×10^6
Apoptotic Cell (%) [1, 3]: 0.53%
Dead cells (%) [1, 3]: 0.00%
Apoptotic Cells (%) [1, 4]: 0.31%
Dead cells (%) [1, 4]: 0.63%
CFSE^+ CD8^+ T cells (%)^* ([1]; REP day 3): 2.14%
Apoptotic cells (% cPARP+ cells in CFSE+ CD8+ T cells) ([1]; REP day 4): 0.85%
Apoptotic cells (% cPARP^+ cells in CFSE^+ CD8^+T cells) ([1]; REP day 4): 0.85%
CFSE+ CD8+ T cells (%) ([1]; REP day 4): 3.07%
Dead cells (1% cisplatin+ cells in CFSE+ CD8+ T cells) ([1]; REP day 4): 0.38%
Dead cells (1% cisplatin^+ cells in CFSE^+ CD8^+ T cells) ([1]; REP day 4): 0.38%
Total CFSE+ CD8+ T cells ([1]; REP day 4): 0.31
Total CFSE^+ CD8^+ T cells ([1]; REP day 4): 0.31
Total cells (×10^6) ([1]; REP day 4): 9.96 ×10^6
Apoptotic Cell (%) [1, 5]: 0.59%
Dead cells (%) [1, 5]: 0.39%
Apoptotic Cells (%) [1, 6]: 0.84%
Dead cells (%) [1, 6]: 0.21%
CFSE^+ CD8^+ T cells (%)^* ([1]; REP day 4): 3.07%
Apoptotic cells (% cPARP+ cells in CFSE+ CD8+ T cells) ([1]; REP day 5): 1.07%
Apoptotic cells (% cPARP^+ cells in CFSE^+ CD8^+T cells) ([1]; REP day 5): 1.07%
CFSE+ CD8+ T cells (%) ([1]; REP day 5): 5.14%
Dead cells (1% cisplatin+ cells in CFSE+ CD8+ T cells) ([1]; REP day 5): 0.21%
Dead cells (1% cisplatin^+ cells in CFSE^+ CD8^+ T cells) ([1]; REP day 5): 0.21%
Total CFSE+ CD8+ T cells ([1]; REP day 5): 0.71
Total CFSE^+ CD8^+ T cells ([1]; REP day 5): 0.71
Total cells (×10^6) ([1]; REP day 5): 13.91 ×10^6
Apoptotic Cell (%) [1, 7]: 2.33%
Dead cells (%) [1, 7]: 0.00%
Apoptotic Cells (%) [1, 8]: 0.79%
Dead cells (%) [1, 8]: 0.24%
CFSE^+ CD8^+ T cells (%)^* ([1]; REP day 5): 5.14%
Apoptotic cells (% cPARP+ cells in CFSE+ CD8+ T cells) ([1]; REP day 7): 2.16%
Apoptotic cells (% cPARP^+ cells in CFSE^+ CD8^+T cells) ([1]; REP day 7): 2.16%
CFSE+ CD8+ T cells (%) ([1]; REP day 7): 6.49%
Dead cells (1% cisplatin+ cells in CFSE+ CD8+ T cells) ([1]; REP day 7): 1.13%
Dead cells (1% cisplatin^+ cells in CFSE^+ CD8^+ T cells) ([1]; REP day 7): 1.13%
Total CFSE+ CD8+ T cells ([1]; REP day 7): 1.82
Total CFSE^+ CD8^+ T cells ([1]; REP day 7): 1.82
Total cells (×10^6) ([1]; REP day 7): 28.03 ×10^6
Apoptotic Cell (%) [1, 9]: 3.47%
Dead cells (%) [1, 9]: 0.69%
Apoptotic Cells (%) [1, 10]: 1.15%
Dead cells (%) [1, 10]: 0.72%
CFSE^+ CD8^+ T cells (%)^* ([1]; REP day 7): 6.49%
Apoptotic Cell (%) [1, 11]: 0.53%
Dead cells (%) [1, 11]: 0.00%
Apoptotic Cell (%) [1, 12]: 0.59%
Dead cells (%) [1, 12]: 0.39%
Apoptotic Cell (%) [1, 13]: 2.33%
Dead cells (%) [1, 13]: 0.00%
Apoptotic Cell (%) [1, 14]: 3.47%
Dead cells (%) [1, 14]: 0.69%
Apoptotic Cells (%) [1, 15]: 0.31%
Dead cells (%) [1, 15]: 0.63%
Apoptotic Cells (%) [1, 16]: 0.84%
Dead cells (%) [1, 16]: 0.21%
Apoptotic Cells (%) [1, 17]: 0.79%
Dead cells (%) [1, 17]: 0.24%
Apoptotic Cells (%) [1, 18]: 1.15%
Dead cells (%) [1, 18]: 0.72%
CD45RA^Low CD25^High (%) ([2]; REP day 3): 27.34%
CD45RA^High CD25^Low (%) ([2]; REP day 3): 16.11%
CD45RA^Low CD25^High (%) ([2]; REP day 4): 30.19%
CD45RA^High CD25^Low (%) ([2]; REP day 4): 16.03%
CD45RA^Low CD25^High (%) ([2]; REP day 5): 43.80%
CD45RA^High CD25^Low (%) ([2]; REP day 5): 8.87%
CD45RA^Low CD25^High (%) ([2]; REP day 7): 21.79%
CD45RA^High CD25^Low (%) ([2]; REP day 7): 9.00%
CD45RA High CD25 Low (%) ([2]; REP day 3): 16.11%
CD45RA Low CD25 High (%) ([2]; REP day 3): 27.34%
CD45RA High CD25 Low (%) ([2]; REP day 4): 16.03%
CD45RA Low CD25 High (%) ([2]; REP day 4): 30.19%
CD45RA High CD25 Low (%) ([2]; REP day 5): 8.87%
CD45RA Low CD25 High (%) ([2]; REP day 5): 43.80%
CD45RA High CD25 Low (%) ([2]; REP day 7): 9.00%
CD45RA Low CD25 High (%) ([2]; REP day 7): 21.79%
